± gives the expanded uncertainty stated by the source.
Assay: xn = mol fraction of the nth substance listed
Details: 100 kPa, Liquid; for viscosity: Falling or rolling sphere viscometry; for speed of sound: Frequency=3 MHz, Single path-length method; for mass density: Vibrating tube method

CCCCn1cc[n+](C)c1.O=S(=O)([O-])C(F)(F)F [1-butyl-3-methylimidazolium trifluoromethanesulfonate] + CC#N
Details | mass density, 313.15 K [kg/m3] | mass density, 318.15 K [kg/m3] | mass density, 323.15 K [kg/m3] | speed of sound, 313.15 K [m/s] | speed of sound, 318.15 K [m/s] | speed of sound, 323.15 K [m/s] | viscosity, 313.15 K [mPa·s] | viscosity, 318.15 K [mPa·s] | viscosity, 323.15 K [mPa·s]
x1 = 0.0911 | 944.8 ± 2 | 939.614 ± 2 | 934.671 ± 2 | 1255.1 ± 2.3 | 1238.2 ± 2.3 | 1221.3 ± 2.3 | 0.79 ± 0.2 | 0.75 ± 0.2 | 0.71 ± 0.2
x1 = 0.2023 | 1061.34 ± 2 | 1057.1 ± 2 | 1052.93 ± 2 | 1285.5 ± 2.3 | 1270.6 ± 2.3 | 1255.8 ± 2.3 | 1.48 ± 0.6 | 1.4 ± 0.6 | 1.32 ± 0.6
x1 = 0.3029 | 1124.17 ± 2.1 | 1120.05 ± 2.1 | 1115.71 ± 2.1 | 1304.8 ± 2.4 | 1290.8 ± 2.4 | 1276.9 ± 2.4 | 3.01 ± 0.6 | 2.75 ± 0.6 | 2.54 ± 0.6
x1 = 0.3998 | 1166.71 ± 2.1 | 1162.77 ± 2.1 | 1158.5 ± 2.1 | 1319.6 ± 2.4 | 1306.4 ± 2.4 | 1293.4 ± 2.4 | 4.73 ± 0.6 | 4.26 ± 0.6 | 3.88 ± 0.6
x1 = 0.4994 | 1198.75 ± 2.1 | 1194.47 ± 2.1 | 1190.69 ± 2.1 | 1330.3 ± 2.5 | 1317.7 ± 2.5 | 1305.2 ± 2.5 | 7.48 ± 0.61 | 6.65 ± 0.6 | 5.95 ± 0.6
x1 = 0.5953 | 1221.91 ± 2.2 | 1217.75 ± 2.2 | 1213.78 ± 2.2 | 1338.4 ± 2.6 | 1326.2 ± 2.6 | 1314 ± 2.6 | 12.06 ± 0.81 | 10.56 ± 0.81 | 9.33 ± 0.61
x1 = 0.7029 | 1243.95 ± 2.2 | 1240.12 ± 2.2 | 1236.14 ± 2.2 | 1347 ± 2.6 | 1335.4 ± 2.6 | 1323.8 ± 2.6 | 17.91 ± 0.82 | 15.52 ± 0.82 | 13.54 ± 0.81
x1 = 0.8009 | 1260.12 ± 2.3 | 1256.17 ± 2.3 | 1252.29 ± 2.3 | 1352 ± 2.7 | 1340.7 ± 2.7 | 1329.5 ± 2.7 | 23.51 ± 0.84 | 20.16 ± 0.83 | 17.4 ± 0.82
x1 = 0.9012 | 1273.98 ± 2.3 | 1270.02 ± 2.3 | 1266.17 ± 2.3 | 1355.8 ± 2.8 | 1344.7 ± 2.8 | 1333.7 ± 2.8 | 31.45 ± 0.88 | 26.58 ± 0.86 | 22.66 ± 0.84
x1 = 1 | 1285.47 ± 2.4 | 1281.47 ± 2.4 | 1277.48 ± 2.4 | 1360.7 ± 2.8 | 1349.9 ± 2.8 | 1338.8 ± 2.8 | 43.67 ± 0.96 | 36.29 ± 0.92 | 30.57 ± 0.88
